# Values quoted from earlier work, collected in PMC9851200, “Multiparameter phenotypic screening for endogenous TFEB and TFE3 translocation identifies novel chemical series modulating lysosome function” (Autophagy, 2022).
# Key:
# Set-up in all cases: method as in original PKIS2 published data
# [1] = target: T1, kinases (KINOMEscan panel) (Homo sapiens, UniProt Q99759); conditions: MAP3K3; Published KINOMEscan; ref original PKIS2 published data; cited from earlier work
# T1 sequence (Q99759 1-626): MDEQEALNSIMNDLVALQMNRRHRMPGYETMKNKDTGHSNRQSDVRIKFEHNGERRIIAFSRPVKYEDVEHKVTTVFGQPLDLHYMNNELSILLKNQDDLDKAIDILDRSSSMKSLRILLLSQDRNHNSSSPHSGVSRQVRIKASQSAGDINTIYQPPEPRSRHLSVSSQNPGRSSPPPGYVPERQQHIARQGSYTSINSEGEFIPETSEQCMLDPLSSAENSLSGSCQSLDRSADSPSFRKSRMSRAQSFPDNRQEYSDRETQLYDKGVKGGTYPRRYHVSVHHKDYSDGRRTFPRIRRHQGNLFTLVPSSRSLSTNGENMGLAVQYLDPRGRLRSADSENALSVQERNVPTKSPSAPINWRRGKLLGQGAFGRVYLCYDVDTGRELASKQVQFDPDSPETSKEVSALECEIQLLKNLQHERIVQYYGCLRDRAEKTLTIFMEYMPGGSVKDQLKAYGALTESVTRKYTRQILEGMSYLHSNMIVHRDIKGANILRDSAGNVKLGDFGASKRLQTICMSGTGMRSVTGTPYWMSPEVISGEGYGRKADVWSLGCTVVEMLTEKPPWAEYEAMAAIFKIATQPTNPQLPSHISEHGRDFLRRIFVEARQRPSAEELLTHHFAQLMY
# [2] = target: kinases (KINOMEscan panel) (Homo sapiens, UniProt P22455); conditions: Published KINOMEscan; ref original PKIS2 published data; cited from earlier work
# kinases (KINOMEscan panel) (Homo sapiens, UniProt P22455), sequence (P22455 22-802): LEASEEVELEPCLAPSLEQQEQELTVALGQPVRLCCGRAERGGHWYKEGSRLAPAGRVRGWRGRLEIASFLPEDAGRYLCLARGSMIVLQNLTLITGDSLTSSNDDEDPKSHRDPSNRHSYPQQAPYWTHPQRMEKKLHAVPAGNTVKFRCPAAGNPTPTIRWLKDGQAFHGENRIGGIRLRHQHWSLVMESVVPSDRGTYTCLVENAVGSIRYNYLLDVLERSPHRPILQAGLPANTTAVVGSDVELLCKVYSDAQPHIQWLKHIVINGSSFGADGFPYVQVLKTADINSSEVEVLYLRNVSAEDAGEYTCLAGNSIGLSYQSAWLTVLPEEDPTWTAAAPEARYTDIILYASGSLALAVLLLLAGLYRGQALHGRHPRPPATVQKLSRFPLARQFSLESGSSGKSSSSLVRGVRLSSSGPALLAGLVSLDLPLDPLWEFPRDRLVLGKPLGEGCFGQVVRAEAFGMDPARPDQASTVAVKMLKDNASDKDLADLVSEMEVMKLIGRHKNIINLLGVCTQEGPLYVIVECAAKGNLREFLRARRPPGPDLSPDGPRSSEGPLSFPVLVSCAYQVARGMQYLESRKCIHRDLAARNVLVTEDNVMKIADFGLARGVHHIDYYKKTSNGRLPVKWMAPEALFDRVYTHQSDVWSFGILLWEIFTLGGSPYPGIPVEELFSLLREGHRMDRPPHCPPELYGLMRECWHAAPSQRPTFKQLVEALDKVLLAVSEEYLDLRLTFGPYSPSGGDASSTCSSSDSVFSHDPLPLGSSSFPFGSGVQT
# [3] = target: kinases (KINOMEscan panel) (Homo sapiens, UniProt P57059); conditions: kinase SIK1; Published KINOMEscan; ref original PKIS2 published data; cited from earlier work
# kinases (KINOMEscan panel) (Homo sapiens, UniProt P57059), sequence (P57059 whole entry): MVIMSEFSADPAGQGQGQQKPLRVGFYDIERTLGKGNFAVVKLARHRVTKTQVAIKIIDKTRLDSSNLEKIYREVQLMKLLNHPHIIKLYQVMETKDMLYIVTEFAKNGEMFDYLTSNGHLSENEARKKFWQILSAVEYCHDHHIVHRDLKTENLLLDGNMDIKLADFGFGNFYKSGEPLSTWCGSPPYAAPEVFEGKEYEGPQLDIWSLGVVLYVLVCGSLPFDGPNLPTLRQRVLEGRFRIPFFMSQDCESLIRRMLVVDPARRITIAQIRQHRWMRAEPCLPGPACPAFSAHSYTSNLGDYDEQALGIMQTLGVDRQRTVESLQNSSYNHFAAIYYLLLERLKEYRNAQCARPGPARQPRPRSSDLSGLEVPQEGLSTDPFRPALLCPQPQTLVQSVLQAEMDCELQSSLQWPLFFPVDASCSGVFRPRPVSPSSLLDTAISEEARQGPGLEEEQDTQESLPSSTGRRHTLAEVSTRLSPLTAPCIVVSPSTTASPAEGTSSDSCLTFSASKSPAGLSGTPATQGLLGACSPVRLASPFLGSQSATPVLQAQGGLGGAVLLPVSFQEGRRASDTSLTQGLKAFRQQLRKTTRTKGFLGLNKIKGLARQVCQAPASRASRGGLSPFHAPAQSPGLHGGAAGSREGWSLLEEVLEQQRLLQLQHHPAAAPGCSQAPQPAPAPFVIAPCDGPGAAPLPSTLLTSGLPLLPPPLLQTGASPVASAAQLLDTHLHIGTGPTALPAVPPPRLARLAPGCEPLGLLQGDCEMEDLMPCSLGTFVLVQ
# [4] = target: kinases (KINOMEscan panel) (Homo sapiens, UniProt O96017); conditions: kinase CHEK2; Published KINOMEscan; ref original PKIS2 published data; cited from earlier work
# kinases (KINOMEscan panel) (Homo sapiens, UniProt O96017), sequence (O96017 whole entry): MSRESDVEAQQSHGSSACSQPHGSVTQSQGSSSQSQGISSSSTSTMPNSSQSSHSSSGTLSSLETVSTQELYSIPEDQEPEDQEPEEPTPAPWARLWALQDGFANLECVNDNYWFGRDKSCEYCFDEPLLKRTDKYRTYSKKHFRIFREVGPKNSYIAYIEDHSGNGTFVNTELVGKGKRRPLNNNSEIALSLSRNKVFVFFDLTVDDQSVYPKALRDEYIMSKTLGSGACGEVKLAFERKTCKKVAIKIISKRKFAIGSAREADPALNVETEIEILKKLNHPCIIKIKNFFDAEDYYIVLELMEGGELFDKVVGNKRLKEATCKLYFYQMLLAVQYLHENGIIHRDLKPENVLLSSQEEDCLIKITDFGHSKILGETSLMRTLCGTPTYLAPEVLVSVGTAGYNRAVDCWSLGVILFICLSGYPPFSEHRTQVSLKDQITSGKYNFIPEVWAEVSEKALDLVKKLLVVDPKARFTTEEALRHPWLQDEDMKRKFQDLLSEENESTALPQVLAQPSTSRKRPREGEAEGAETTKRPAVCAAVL
# [5] = target: kinases (KINOMEscan panel) (Homo sapiens, UniProt P68400); conditions: CSNK2A1; Published KINOMEscan; ref original PKIS2 published data; cited from earlier work
# kinases (KINOMEscan panel) (Homo sapiens, UniProt P68400), sequence (P68400 whole entry): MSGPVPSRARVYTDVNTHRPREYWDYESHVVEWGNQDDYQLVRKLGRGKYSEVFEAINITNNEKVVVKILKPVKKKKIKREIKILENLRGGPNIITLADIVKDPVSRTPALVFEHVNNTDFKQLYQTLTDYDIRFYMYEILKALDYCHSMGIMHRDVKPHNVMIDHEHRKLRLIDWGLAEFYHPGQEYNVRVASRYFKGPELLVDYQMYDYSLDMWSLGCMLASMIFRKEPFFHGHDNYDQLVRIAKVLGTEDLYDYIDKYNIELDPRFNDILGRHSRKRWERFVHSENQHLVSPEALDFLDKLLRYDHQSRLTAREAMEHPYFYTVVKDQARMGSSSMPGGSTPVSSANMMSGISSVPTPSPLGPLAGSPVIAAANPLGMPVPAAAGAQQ
# [6] = target: T2, kinases (KINOMEscan panel) (Homo sapiens, UniProt O75385); conditions: Published KINOMEscan; ref original PKIS2 published data; cited from earlier work
# T2 sequence (O75385 1-1050): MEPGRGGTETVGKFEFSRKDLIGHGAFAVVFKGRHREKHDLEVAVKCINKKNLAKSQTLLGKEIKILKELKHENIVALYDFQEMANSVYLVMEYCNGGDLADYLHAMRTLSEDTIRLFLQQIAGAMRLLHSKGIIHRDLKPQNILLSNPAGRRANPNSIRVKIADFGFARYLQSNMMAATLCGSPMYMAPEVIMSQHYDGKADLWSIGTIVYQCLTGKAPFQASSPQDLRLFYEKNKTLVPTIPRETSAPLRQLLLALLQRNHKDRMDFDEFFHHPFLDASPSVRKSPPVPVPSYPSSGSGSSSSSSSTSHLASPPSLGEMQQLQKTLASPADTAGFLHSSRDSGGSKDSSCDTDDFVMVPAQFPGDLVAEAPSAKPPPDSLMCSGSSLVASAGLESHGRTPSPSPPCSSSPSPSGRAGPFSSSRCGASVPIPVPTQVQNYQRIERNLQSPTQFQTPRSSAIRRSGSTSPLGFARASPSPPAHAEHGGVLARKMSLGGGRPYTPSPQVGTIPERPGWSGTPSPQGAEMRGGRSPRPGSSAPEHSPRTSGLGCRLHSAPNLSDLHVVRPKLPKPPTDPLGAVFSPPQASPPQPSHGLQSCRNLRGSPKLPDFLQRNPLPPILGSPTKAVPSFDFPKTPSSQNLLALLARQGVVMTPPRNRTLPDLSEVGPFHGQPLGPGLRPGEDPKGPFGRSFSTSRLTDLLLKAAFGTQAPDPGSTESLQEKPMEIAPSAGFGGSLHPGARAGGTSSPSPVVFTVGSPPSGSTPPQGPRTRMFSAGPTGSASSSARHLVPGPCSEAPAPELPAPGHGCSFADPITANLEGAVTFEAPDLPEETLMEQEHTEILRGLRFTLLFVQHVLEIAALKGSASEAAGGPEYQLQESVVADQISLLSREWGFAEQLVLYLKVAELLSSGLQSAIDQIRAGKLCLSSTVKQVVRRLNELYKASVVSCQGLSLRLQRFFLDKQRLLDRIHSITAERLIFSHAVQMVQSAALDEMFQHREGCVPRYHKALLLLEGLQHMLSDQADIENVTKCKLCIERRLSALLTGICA
structure (smiles),measurement,setting,value
Cc1cccc(-c2nc(Nc3ccncc3)c3ccccc3n2)n1 [NK215],KINOMEscan MAP3K3,[1],0
same,KINOMEscan FGFR4,[2],6
same,KINOMEscan SIK1,[3],4
same,KINOMEscan CHEK2,[4],0
same,KINOMEscan CSNK2A1,[5],0
same,KINOMEscan ULK1,[6],0
